ChEMBL document CHEMBL4419169, “Novel Ferroportin Inhibitors” (2018)

Key:
Type in all cases: functional
Mus musculus [1] = test: Disease modifying capacity in mouse model of transfusion-independent beta-thalassemia intermedia assessed as decrease in bone marrow ROS levels level at 60 mg/kg, po BID for 20 days relative to control; parameters: scale not given: the % may be the effect or the level left
Mus musculus [2] = test: Disease modifying capacity in mouse model of transfusion-independent beta-thalassemia intermedia assessed as decrease in blood reticulocyte counts at 20 mg/kg, po BID for 20 days relative to control; parameters: scale not given: the % may be the effect or the level left
Mus musculus [3] = test: Disease modifying capacity in mouse model of transfusion-independent beta-thalassemia intermedia assessed as decrease in RDW level at 60 mg/kg, po BID for 20 days relative to control; parameters: scale not given: the % may be the effect or the level left
Mus musculus [4] = test: Induction of hypoferremia in wild type C57BL/6 mouse assessed as decrease in serum iron levels at 100 mg/kg, po measured after 3 hrs post dose; parameters: scale not given: the % may be the effect or the level left
Mus musculus [5] = test: Prevention of hyperferremia in iron overloaded beta2-microglobulin deficient female mouse assessed as reduction in serum iron level at 20 mg/kg, po measured after 3 hrs relative to control; parameters: scale not given: the % may be the effect or the level left
Mus musculus [6] = test: Prevention of hyperferremia in iron overloaded beta2-microglobulin deficient male mouse assessed as reduction in serum iron level at 20 mg/kg, po measured after 3 hrs relative to control; parameters: scale not given: the % may be the effect or the level left
Rattus norvegicus [7] = test: Prevention of iron absorption in anemic Wistar rat model of iron absorption assessed as inhibition of increase in serum iron at 10 mg/kg, po pre-dosed 1 hr before ferrous sulfate dosing and measured 3 hours after iron dosing
Mus musculus [8] = test: Disease modifying capacity in mouse model of transfusion-independent beta-thalassemia intermedia assessed as decrease in relative spleen weight at 60 mg/kg, po BID for 20 days relative to control; parameters: scale not given: the % may be the effect or the level left
Mus musculus [9] = test: Prevention of hyperferremia in iron overloaded beta2-microglobulin deficient male mouse assessed as reduction in serum iron level at 60 mg/kg, po measured after 3 hrs relative to control; parameters: scale not given: the % may be the effect or the level left
Mus musculus [10] = test: Disease modifying capacity in mouse model of transfusion-independent beta-thalassemia intermedia assessed as decrease in relative spleen weight at 20 mg/kg, po BID for 20 days relative to control; parameters: scale not given: the % may be the effect or the level left
Mus musculus [11] = test: Disease modifying capacity in mouse model of transfusion-independent beta-thalassemia intermedia assessed as decrease in leukocyte counts level at 20 mg/kg, po BID for 20 days relative to control; parameters: scale not given: the % may be the effect or the level left
Mus musculus [12] = test: Disease modifying capacity in mouse model of transfusion-independent beta-thalassemia intermedia assessed as increase in hematocrit levels at 60 mg/kg, po BID for 20 days relative to control
Mus musculus [13] = test: Disease modifying capacity in mouse model of transfusion-independent beta-thalassemia intermedia assessed as increase in blood erythrocyte counts at 60 mg/kg, po BID for 20 days relative to control
Mus musculus [14] = test: Disease modifying capacity in mouse model of transfusion-independent beta-thalassemia intermedia assessed as prevention of liver [58Fe] loading at 20 mg/kg, po BID for 20 days relative to control
Mus musculus [15] = test: Decrease in serum iron in mouse model of transfusion-independent beta-thalassemia intermedia at 60 mg/kg, po BID for 20 days relative to control; parameters: scale not given: the % may be the effect or the level left
Mus musculus [16] = test: Disease modifying capacity in mouse model of transfusion-independent beta-thalassemia intermedia assessed as decrease in bone marrow ROS levels level at 20 mg/kg, po BID for 20 days relative to control; parameters: scale not given: the % may be the effect or the level left
Mus musculus [17] = test: Disease modifying capacity in mouse model of transfusion-independent beta-thalassemia intermedia assessed as prevention of liver [58Fe] loading at 60 mg/kg, po BID for 20 days relative to control
Mus musculus [18] = test: Disease modifying capacity in mouse model of transfusion-independent beta-thalassemia intermedia assessed as decrease in [58Fe] spleen iron content at 60 mg/kg, po BID for 20 days relative to control; parameters: scale not given: the % may be the effect or the level left
Mus musculus [19] = test: Disease modifying capacity in mouse model of transfusion-independent beta-thalassemia intermedia assessed as decrease in RDW level at 20 mg/kg, po BID for 20 days relative to control; parameters: scale not given: the % may be the effect or the level left
Mus musculus [20] = test: Disease modifying capacity in mouse model of transfusion-independent beta-thalassemia intermedia assessed as increase in blood erythrocyte counts at 20 mg/kg, po BID for 20 days relative to control
Mus musculus [21] = test: Disease modifying capacity in mouse model of transfusion-independent beta-thalassemia intermedia assessed as decrease in [58Fe] spleen iron content at 20 mg/kg, po BID for 20 days relative to control; parameters: scale not given: the % may be the effect or the level left
Mus musculus [22] = test: Induction of hypoferremia in wild type C57BL/6 mouse assessed as decrease in serum iron levels at 10 mg/kg, po measured after 3 hrs post dose; parameters: scale not given: the % may be the effect or the level left
Mus musculus [23] = test: Decrease in serum iron in mouse model of transfusion-independent beta-thalassemia intermedia at 20 mg/kg, po BID for 20 days relative to control; parameters: scale not given: the % may be the effect or the level left
Rattus norvegicus [24] = test: Prevention of iron absorption in anemic Wistar rat model of iron absorption assessed as inhibition of increase in serum iron at 30 mg/kg, po pre-dosed 1 hr before ferrous sulfate dosing and measured 3 hours after iron dosing
Mus musculus [25] = test: Prevention of hyperferremia in iron overloaded beta2-microglobulin deficient female mouse assessed as reduction in serum iron level at 60 mg/kg, po measured after 3 hrs relative to control; parameters: scale not given: the % may be the effect or the level left
Mus musculus [26] = test: Disease modifying capacity in mouse model of transfusion-independent beta-thalassemia intermedia assessed as decrease in leukocyte counts level at 60 mg/kg, po BID for 20 days relative to control; parameters: scale not given: the % may be the effect or the level left
Mus musculus [27] = test: Disease modifying capacity in mouse model of transfusion-independent beta-thalassemia intermedia assessed as decrease in serum erythropoietin at 60 mg/kg, po BID for 20 days relative to control; parameters: scale not given: the % may be the effect or the level left
Mus musculus [28] = test: Induction of hypoferremia in wild type C57BL/6 mouse assessed as decrease in serum iron levels at 30 mg/kg, po measured after 3 hrs post dose; parameters: scale not given: the % may be the effect or the level left
Mus musculus [29] = test: Disease modifying capacity in mouse model of transfusion-independent beta-thalassemia intermedia assessed as increase in hematocrit levels at 20 mg/kg, po BID for 20 days relative to control
Mus musculus [30] = test: Disease modifying capacity in mouse model of transfusion-independent beta-thalassemia intermedia assessed as decrease in serum erythropoietin at 20 mg/kg, po BID for 20 days relative to control; parameters: scale not given: the % may be the effect or the level left
Rattus norvegicus [31] = test: Prevention of iron absorption in anemic Wistar rat model of iron absorption assessed as inhibition of increase in serum iron at 3 mg/kg, po pre-dosed 1 hr before ferrous sulfate dosing and measured 3 hours after iron dosing

Structure (SMILES): O=C(NCc1ncccc1F)c1cnc(C2CN(CCc3nc4ccccc4[nH]3)C2)o1
- Activity (Mus musculus [1]): 65%
- Activity (Mus musculus [2]): 0%
- Activity (Mus musculus [3]): 15%
- Activity (Mus musculus [4]): 50%
- Activity (Mus musculus [5]): 27%
- Activity (Mus musculus [6]): 29%
- inhibition in vivo at 10 mg/kg (Rattus norvegicus [7]): 29%
- Activity (Mus musculus [8]): 47%
- Activity (Mus musculus [9]): 66%
- Activity (Mus musculus [10]): 16%
- Activity (Mus musculus [11]): 29%
- Activity (Mus musculus [12]): 15%
- Activity (Mus musculus [13]): 33%
- Activity (Mus musculus [14]): 14%
- Activity (Mus musculus [15]): 69%
- Activity (Mus musculus [16]): 13%
- Activity (Mus musculus [17]): 47%
- Activity (Mus musculus [18]): 40%
- Activity (Mus musculus [19]): 0%
- Activity (Mus musculus [20]): 0%
- Activity (Mus musculus [21]): 13%
- Activity (Mus musculus [22]): 9%
- Activity (Mus musculus [23]): 50%
- inhibition in vivo at 30 mg/kg (Rattus norvegicus [24]): 57%
- Activity (Mus musculus [25]): 57%
- Activity (Mus musculus [26]): 55%
- Activity (Mus musculus [27]): 27%
- Activity (Mus musculus [28]): 26%
- Activity (Mus musculus [29]): 0%
- Activity (Mus musculus [30]): 4%
- inhibition in vivo at 3 mg/kg (Rattus norvegicus [31]): -3%
